Target: T1, BmDop2R2 (Bombyx mori, UniProt A0A2D1QSC3)
T1 construct: full-length ORF (536 residues printed; 1596 bp ORF, which would give about 531; 7 TM) in pcDNA3.1(+), HindIII/NotI, transfected HEK-293 cells; no tag mentioned; chromosome 18, nscaf 2901; tandem paralogue of BmDop2R1 (440 residues, lacks TM I-II)
T1 sequence (A0A2D1QSC3 1-536): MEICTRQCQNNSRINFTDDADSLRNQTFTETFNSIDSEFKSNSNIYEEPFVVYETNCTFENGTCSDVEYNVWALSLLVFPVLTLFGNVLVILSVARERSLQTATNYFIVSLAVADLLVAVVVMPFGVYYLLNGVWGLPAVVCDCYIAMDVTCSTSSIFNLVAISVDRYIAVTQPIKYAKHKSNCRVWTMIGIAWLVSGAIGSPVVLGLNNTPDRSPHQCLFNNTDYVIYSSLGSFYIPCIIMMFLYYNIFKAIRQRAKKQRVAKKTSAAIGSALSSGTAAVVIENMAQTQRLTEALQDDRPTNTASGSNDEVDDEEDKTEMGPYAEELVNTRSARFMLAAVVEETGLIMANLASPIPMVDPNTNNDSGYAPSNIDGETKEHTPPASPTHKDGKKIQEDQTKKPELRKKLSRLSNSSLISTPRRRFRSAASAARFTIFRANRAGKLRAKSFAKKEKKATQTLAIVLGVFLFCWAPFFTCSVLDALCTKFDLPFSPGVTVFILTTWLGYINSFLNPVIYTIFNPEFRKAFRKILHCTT
Experiment: cAMP ELISA in transfected HEK-293 cells (inhibition of forskolin-stimulated cAMP)
Assay type: cell-based

`NCCc1ccc(O)c(O)c1` [dopamine] was tested. Which EC50 did it give?
The EC50 was 657 nM.
